Experimental data from article PMC9266914, “Broad Spectrum Functional Activity of Structurally Related Monoanionic Au(III) Bis(Dithiolene) Complexes” (International Journal of Molecular Sciences, 2022).
Several values for one entry are separate records, joined by “and”; a condition that tells them apart may be missing. Equal values may be shown once.

Tests used:
C. albicans SC5134 = assay: MIC determination, C. albicans; format: cell-based, Candida albicans; conditions: RPMIG, 24 h, 35 °C
Source text: (§1) The bacterial strains Escherichia coli ATCC25922 and Staphylococcus aureus Newman were used in this work and maintained in Lennox Broth (LB) solid medium, composed of 10 g/L tryptone, 5 g/L yeast extract, 5 g/L NaCl and 20 g/L agar. The fungal strains Candida albicans SC5134 and C. glabrata CBS138 were used in this work and maintained in YPD solid medium, composed of 20 g/L glucose, 20 g/L peptone, 10 g/L yeast extract and 15 g/L agar. The strains were isolated from human infections.
(§2) The antimicrobial activity of the complexes towards the bacterial and fungal strains was assessed by the determination of the Minimal Inhibitory Concentration (MIC) of each complex towards the indicated microbial strains, based on standard methods, and as previously described. […] Serial 1:2 dilutions of stock solutions were prepared for each complex in Mueller–Hinton (MH) broth (Fluka Analytical) or RPMI-1640 medium (Sigma) supplemented with 20 g/L glucose and buffered with 0.165 M morpholinepropanesulphonic acid (RPMIG) to pH 7.0. Solutions prepared with MH were used for testing bacteria, while those prepared with RPMIG were used for testing fungi. For antibacterial activity assays, the final concentrations ranged from 250 to 0.24 μg/mL (when stock solution final concentration was 10 mg/mL), 125 μg/mL to 0.12 μg/mL (when stock solution final concentration was 5 mg/mL) and 62.5 to 0.06 μg/mL (when stock solution final concentration was 2.5 mg/mL). For antifungal assays, the final concentrations ranged from 125 μg/mL to 0.12 μg/mL (when stock solution final concentration was 10 mg/mL), 62.5 to 0.06 μg/mL (when stock solution final concentration was 5 mg/mL) and 31.25 to 0.03 μg/mL (when stock solution final concentration was 2.5 mg/mL). Then, 100 μL aliquots of adequately diluted bacterial suspensions of S. aureus Newman or E. coli ATCC 25922 were mixed with the MH serially diluted complexes aliquots to obtain 5 × 10^5 CFU/mL. In the case of fungi, cultures were diluted to obtain a final optical density of 0.025, measured at 530 nm (OD530). Bacterial suspensions were prepared from cultures grown for 5 h in MH broth at 37 °C and 250 rev·min^−1 and adequately diluted with fresh MH medium, while fungal suspensions were prepared from overnight cultures grown in YPD broth at 30 °C and 250 rev.min^−1 and diluted in buffered RPMIG. After 22 h of incubation at 37 °C (bacteria) or 24 h at 35 °C (fungi), the wells’ content was resuspended by pipetting and the OD640 (bacteria) or OD530 (fungi) were measured in a SPECTROstar Nano microplate reader (BMG Labtech).
(§3) At least three independent experiments were performed in duplicate for each complex under study. […] Positive (no complex) and negative controls (no inoculum) were performed for each experiment. The effect of 5% (V/V) DMSO on microbial growth was also assessed.

[1] = target: human serum albumin (HSA) (Homo sapiens, UniProt P02768); assay: HSA fluorescence quenching (Stern-Volmer); format: binding; conditions: for Stern Volmer quenching constant KSV / association constant Ka / bimolecular quenching constant Kq / number of binding sites n: HSA, Hepes pH 7.4; for HSA fluorescence intensity quenched: two molar excesses of complex, 37 °C, 24 h, pH 7.4
Method: Stock solutions of HSA were prepared by dissolving HSA in 10 mM Hepes buffer, pH 7.4. The protein concentration was determined spectrophotometrically using the molar absorption coefficient of 36,500 M^−1 cm^−1 at 280 nm. The complexes [P][AuSEt(=S)], [P][AuSEt(=Se)], [P][AuSeiPr(=S)] and [P][AuSBu(=S)] were first prepared at 1 mM concentration in DMSO due to the limited solubility of the complexes in aqueous media. A series of complex–protein solutions were prepared by adding different concentrations of gold complexes solutions to the protein solution previously prepared. After preparation of the batch complex–protein solutions, the final concentration of DMSO was 1%. For fluorescence acquisition, the final HSA concentration was […] and the gold concentrations were […]. The mixtures were stirred to ensure the formation of a homogeneous solution and then kept in an incubator at 37 °C for 24 h in the dark to stabilize and enhance the interaction time. The reference solutions without protein were prepared following the procedures described above.
Steady-state fluorescence measurements were performed with a Fluorolog Model-3.22 spectrofluorimeter from Horiba Jobin Yvon at 25 °C. All the experiments were performed in Hellma® semi-micro fluorescence cuvettes (Suprasil® quartz, path-length 10 × 4 mm, chamber volume […]) with the 10 mm path length for the excitation of the sample. The excitation and emission bandwidths were fixed at 4.0 nm, and the excitation wavelength was 295 nm to excite selectively the tryptophan 214 residue, the emission spectra were recorded from 305 to 550 nm. Buffer solutions of gold complexes in corresponding concentrations were used as reference for the measured fluorescence spectra of protein–complex mixtures. The fluorescence intensities were corrected for the absorption of the exciting light and reabsorption of the emitted light to decrease the inner filter effect using UV–visible absorption data recorded for each sample on a Jasco V-660 spectrophotometer in the range of 260 to 800 nm with 1 mm path quartz cells. More details and all the equations can be found in the SI.
F0 = 1 + (K + K )[Q] + K K [Q]2 (S1) where F0 and F are the fluorescence intensities of HSA in the absence and presence of a quencher (Au complex), respectively; KD and KS represents the dynamic and static constants, respectively, and [Q] is the quencher concentration.
When the fluorescence intensity quenching occurs by a purely static or dynamic mechanism, the following Stern-Volmer equation can be used:
F0 = 1 + K τ [Q] = 1 + K [Q] (S2) where Kq, 0 and KSV represents the bimolecular quenching constant, the fluorophore lifetime in the absence of the quencher and the Stern -Volmer quenching constant, respectively.
The relationship between the fluorescence intensity of the protein and the complex concentrati on is given by the equation:
log (F0 − F) = log K + n log[Q] […]
Table S1. Values of Stern Volmer quenching constant (Ksv), association constant (Ka) and number of binding sites (n) for the interaction for HSA with gold […]

E. coli ATCC25922 = assay: MIC determination, E. coli; format: cell-based, Escherichia coli; conditions: MH broth, 22 h, 37 °C
Source text: as §1, §2, §3

Sequence of human serum albumin (HSA) (P02768 25-609): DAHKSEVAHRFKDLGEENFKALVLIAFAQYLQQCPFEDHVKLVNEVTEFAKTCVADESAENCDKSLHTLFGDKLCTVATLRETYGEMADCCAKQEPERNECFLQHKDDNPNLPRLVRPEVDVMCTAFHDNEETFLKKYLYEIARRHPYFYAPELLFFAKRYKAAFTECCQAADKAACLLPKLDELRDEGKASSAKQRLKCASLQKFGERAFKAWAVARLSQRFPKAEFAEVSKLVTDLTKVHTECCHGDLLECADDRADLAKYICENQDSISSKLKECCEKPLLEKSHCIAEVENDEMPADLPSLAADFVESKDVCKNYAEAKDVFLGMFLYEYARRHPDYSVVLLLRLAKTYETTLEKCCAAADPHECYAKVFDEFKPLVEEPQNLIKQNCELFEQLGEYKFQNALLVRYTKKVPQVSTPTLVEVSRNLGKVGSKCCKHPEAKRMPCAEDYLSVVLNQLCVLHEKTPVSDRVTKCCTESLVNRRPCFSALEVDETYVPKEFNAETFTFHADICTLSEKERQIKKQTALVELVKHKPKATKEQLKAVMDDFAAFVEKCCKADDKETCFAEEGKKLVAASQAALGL

SMILES	MIC C. albicans SC5134 (C. albicans SC5134)	Stern Volmer quenching constant KSV [1]	association constant Ka [1]	bimolecular quenching constant Kq [1]	number of binding sites n [1]	HSA fluorescence intensity quenched [1]	MIC E. coli ATCC25922 (E. coli ATCC25922)
CC(C)n1c2c(sc1=S)[Se][Au-]1([Se]c3sc(=S)n(C(C)C)c3[Se]1)[Se]2.c1ccc([P+](c2ccccc2)(c2ccccc2)c2ccccc2)cc1 [[P][AuSeiPr(=S)]]	>31.25 µg/mL	3.63 ± 0.04 x 105 L mol-1	1.52 ± 0.01 x 104 L mol-1	3.63 ± 0.01 x 1013 L mol-1 s-1	0.957	60%	>62.5 µg/mL
CCn1c2c(sc1=S)[S][Au-]1([S]c3sc(=S)n(CC)c3[S]1)[S]2.c1ccc([P+](c2ccccc2)(c2ccccc2)c2ccccc2)cc1 [[P][AuSEt(=S)]]	>62.5 µg/mL	6.48 ± 0.06 x 105 L mol-1	1.12 ± 0.02 x 104 L mol-1	6.48 ± 0.06 x 1013 L mol-1 s-1	1.179	76.3%	>125 µg/mL
CC(=O)OC[C@H]1O[C@@H]([S-])[C@H](OC(C)=O)[C@@H](OC(C)=O)[C@@H]1OC(C)=O.CCP(CC)CC.[Au+] [Auranofin, reference compound]	7.9 µg/mL and 7.9 ± 0.5 µg/mL						35.5 µg/mL and 35.5 ± 0.6 µg/mL
CCn1c2c(sc1=[Se])[S][Au-]1([S]c3sc(=[Se])n(CC)c3[S]1)[S]2.c1ccc([P+](c2ccccc2)(c2ccccc2)c2ccccc2)cc1 [[P][AuSEt(=Se)]]	>62.5 µg/mL	5.00 ± 0.17 x 105 L mol-1	0.52 ± 0.03 x 104 L mol-1	5.00 ± 0.17 x 1013 L mol-1 s-1	2.135	79.4%	>125 µg/mL
CCCCn1c2c(sc1=S)[S][Au-]1([S]c3sc(=S)n(CCCC)c3[S]1)[S]2.c1ccc([P+](c2ccccc2)(c2ccccc2)c2ccccc2)cc1 [[P][AuSBu(=S)]]	>62.5 µg/mL	14.9 ± 0.13 x 105 L mol-1	9.34 ± 0.01 x 104 L mol-1	14.9 ± 0.05 x 1013 L mol-1 s-1	0.738	89.7%	>125 µg/mL
